Columns and labels:
[1] = target: Poly [ADP-ribose] polymerase 1 (Mus musculus, UniProt P11103); assay: Inhibition of recombinant mouse PARP-1 incubated for 16 hrs in presence of NAD+ by liquid scintillation spectrometry based scintillation proximity assay
[2] = target: Poly [ADP-ribose] polymerase 1 (Homo sapiens, UniProt P09874); assay: Inhibition of GST-tagged human PARP1 incubated for 30 mins by chemiluminescence based UV/visible spectrophotometric analysis
[3] = target: Poly [ADP-ribose] polymerase 2 (Homo sapiens, UniProt Q9UGN5); assay: Inhibition of GST-tagged human PARP2 incubated for 30 mins by chemiluminescence based UV/visible spectrophotometric analysis
Poly [ADP-ribose] polymerase 2, sequence (Q9UGN5 whole entry): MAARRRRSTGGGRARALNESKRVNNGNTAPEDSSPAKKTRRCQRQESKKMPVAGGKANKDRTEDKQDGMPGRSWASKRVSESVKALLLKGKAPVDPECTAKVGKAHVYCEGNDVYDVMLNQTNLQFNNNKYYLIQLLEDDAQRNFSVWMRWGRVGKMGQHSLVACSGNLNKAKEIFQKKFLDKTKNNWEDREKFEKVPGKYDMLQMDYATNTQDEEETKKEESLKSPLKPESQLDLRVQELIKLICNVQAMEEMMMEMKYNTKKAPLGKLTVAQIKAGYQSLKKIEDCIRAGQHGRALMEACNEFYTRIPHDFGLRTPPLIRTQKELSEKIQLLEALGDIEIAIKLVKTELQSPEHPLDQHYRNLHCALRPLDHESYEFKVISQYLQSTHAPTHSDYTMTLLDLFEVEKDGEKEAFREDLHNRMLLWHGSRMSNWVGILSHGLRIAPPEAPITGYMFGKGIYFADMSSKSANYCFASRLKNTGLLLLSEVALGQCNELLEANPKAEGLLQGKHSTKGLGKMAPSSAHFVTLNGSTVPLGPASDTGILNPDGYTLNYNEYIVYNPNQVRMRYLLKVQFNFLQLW

SK-OV-3 [4] = assay: animal or person; conditions: Mus musculus, SK-OV-3, po, 744 h, read-out: TGI
Description: Antitumor activity against human SK-OV-3 cells xenografted in female BALB/c nude mouse assessed as tumor growth inhibition at 50 mg/kg, po administered via gavage once daily for 31 days relative to control

CAPAN-1 = assay: cells; conditions: Homo sapiens, CAPAN-1, 72 h
Description: Antiproliferative activity against human CAPAN-1 cells harboring BRCA1 mutant assessed as inhibition of cell proliferation incubated for 72 hrs

HCC1937 = assay: cells; conditions: Homo sapiens, HCC1937, 72 h
Description: Antiproliferative activity against human HCC1937 cells harboring BRCA2 mutant assessed as inhibition of cell proliferation incubated for 72 hrs

SiHa = assay: cells; conditions: Homo sapiens, 72 h
Description: Antiproliferative activity against human SiHa cells assessed as inhibition of cell proliferation incubated for 72 hrs

in vitro [5] = conditions: human, NCM460 cells
Description: Cytotoxicity against human NCM460 cells assessed as inhibition of cell proliferation incubated for 72 hrs

HCT-116 = assay: cells; conditions: Homo sapiens, HCT-116, 72 h
Description: Antiproliferative activity against human HCT-116 cells assessed as inhibition of cell proliferation incubated for 72 hrs

A549 = assay: cells; conditions: Homo sapiens, A549, 72 h
Description: Antiproliferative activity against human A549 cells assessed as inhibition of cell proliferation incubated for 72 hrs

[6] = Inhibition of PARP1 Ala755Gln, Gln759Ser and Val762Ile mutant (unknown origin) incubated for 1 hrs in presence of NAD and DNA by ELISA
C-33-A = assay: cells; conditions: Homo sapiens, 72 h
Description: Antiproliferative activity against human C-33-A cells assessed as inhibition of cell proliferation incubated for 72 hrs

in vitro [7] = conditions: human, H8 cells
Description: Cytotoxicity against human H8 cells assessed as inhibition of cell proliferation incubated for 72 hrs

SK-OV-3 [8] = assay: cells; conditions: Homo sapiens, SK-OV-3, 72 h
Description: Antiproliferative activity against human SK-OV-3 cells assessed as inhibition of cell proliferation incubated for 72 hrs

Poly [ADP-ribose] polymerase 1 (Homo sapiens, UniProt P09874), sequence (P09874 whole entry): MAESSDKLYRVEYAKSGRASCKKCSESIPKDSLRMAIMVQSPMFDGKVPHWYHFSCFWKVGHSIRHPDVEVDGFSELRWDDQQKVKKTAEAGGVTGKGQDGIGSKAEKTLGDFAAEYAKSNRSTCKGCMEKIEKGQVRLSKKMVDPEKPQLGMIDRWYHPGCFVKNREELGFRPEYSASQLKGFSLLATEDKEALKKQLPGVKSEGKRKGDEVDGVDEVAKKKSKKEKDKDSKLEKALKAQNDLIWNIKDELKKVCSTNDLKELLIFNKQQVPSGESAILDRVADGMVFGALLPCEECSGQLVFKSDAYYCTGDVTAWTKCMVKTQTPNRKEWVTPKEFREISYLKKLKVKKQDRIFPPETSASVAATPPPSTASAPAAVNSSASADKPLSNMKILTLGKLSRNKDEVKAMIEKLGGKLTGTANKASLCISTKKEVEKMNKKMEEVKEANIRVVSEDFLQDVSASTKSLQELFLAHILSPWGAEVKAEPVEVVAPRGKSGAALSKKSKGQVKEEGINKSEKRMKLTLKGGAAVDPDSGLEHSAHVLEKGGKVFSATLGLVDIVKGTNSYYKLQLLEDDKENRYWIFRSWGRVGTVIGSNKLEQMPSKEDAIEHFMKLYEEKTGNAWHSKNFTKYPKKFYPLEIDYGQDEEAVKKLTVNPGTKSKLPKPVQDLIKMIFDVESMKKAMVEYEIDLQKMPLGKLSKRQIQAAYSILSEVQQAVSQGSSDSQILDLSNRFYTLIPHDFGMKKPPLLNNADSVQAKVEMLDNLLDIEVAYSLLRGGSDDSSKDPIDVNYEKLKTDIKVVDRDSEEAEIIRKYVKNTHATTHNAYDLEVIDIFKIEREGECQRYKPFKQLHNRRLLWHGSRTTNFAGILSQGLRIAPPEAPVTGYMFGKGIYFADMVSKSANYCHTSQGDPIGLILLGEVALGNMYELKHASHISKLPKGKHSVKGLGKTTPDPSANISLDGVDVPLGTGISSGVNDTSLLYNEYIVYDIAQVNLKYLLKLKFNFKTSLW
Poly [ADP-ribose] polymerase 1 (Mus musculus, UniProt P11103), sequence (P11103 whole entry): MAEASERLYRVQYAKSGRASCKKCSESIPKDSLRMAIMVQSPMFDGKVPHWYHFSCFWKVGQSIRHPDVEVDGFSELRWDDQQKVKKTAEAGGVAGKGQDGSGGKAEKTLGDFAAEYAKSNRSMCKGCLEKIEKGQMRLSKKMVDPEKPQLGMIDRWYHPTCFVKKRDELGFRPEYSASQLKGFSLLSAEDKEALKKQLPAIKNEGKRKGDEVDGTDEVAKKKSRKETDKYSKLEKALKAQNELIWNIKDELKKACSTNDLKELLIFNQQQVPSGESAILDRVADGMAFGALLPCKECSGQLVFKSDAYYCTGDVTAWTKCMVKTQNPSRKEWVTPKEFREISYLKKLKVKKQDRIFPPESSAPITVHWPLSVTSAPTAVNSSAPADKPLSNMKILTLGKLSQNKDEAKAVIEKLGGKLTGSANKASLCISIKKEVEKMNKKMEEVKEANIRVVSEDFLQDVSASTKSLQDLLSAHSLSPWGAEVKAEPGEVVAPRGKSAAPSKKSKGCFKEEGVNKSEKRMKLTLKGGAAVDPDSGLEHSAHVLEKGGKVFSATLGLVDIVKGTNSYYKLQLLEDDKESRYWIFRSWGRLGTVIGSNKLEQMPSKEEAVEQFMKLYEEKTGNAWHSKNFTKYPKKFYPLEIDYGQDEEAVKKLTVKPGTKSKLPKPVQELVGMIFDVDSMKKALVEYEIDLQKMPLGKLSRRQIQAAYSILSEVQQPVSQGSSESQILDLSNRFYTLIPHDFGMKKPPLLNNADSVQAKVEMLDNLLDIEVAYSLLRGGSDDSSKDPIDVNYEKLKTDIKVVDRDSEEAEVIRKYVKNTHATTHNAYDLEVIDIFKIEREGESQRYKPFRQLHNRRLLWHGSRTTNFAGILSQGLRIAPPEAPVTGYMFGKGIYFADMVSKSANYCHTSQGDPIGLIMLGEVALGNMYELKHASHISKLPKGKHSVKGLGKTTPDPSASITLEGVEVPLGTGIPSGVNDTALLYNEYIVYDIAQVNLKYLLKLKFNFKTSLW

## Cn1cccc1/C=C1\C(=O)NC(=O)c2ccccc21
[1]
  IC50: 4.79 µM

## COc1cc(/C=N/NC(N)=S)c(Br)c(Br)c1OC
[2]
  IC50: 42.9 nM
[3]
  IC50: 1560 nM
SK-OV-3 [4]
  inhibition in vivo at 50 mg/kg: 57.4%

## COc1cc(-c2nc3c(C(N)=O)cccc3[nH]2)cc(Br)c1OC(=O)C(C)(C)C
[2]
  IC50: 33.2 nM
[3]
  IC50: 2070 nM

## COc1cc(-c2nc3c(C(N)=O)cccc3[nH]2)cc(Br)c1OS(=O)(=O)c1c(C)cc(C)cc1C
[2]
  IC50: 33.7 nM
[3]
  IC50: 1780 nM

## CCCS(=O)(=O)Oc1c(Br)cc(-c2nc3c(C(N)=O)cccc3[nH]2)cc1OC
[2]
  IC50: 50.5 nM
[3]
  IC50: 760 nM

## O=C(c1cc(Cc2n[nH]c(=O)c3ccccc23)ccc1F)N1CCN(C(=O)C2CC2)CC1 [OLAPARIB]
CAPAN-1
  IC50: 60.7 µM
HCC1937
  IC50: 22 µM
SiHa
  IC50: > 200 µM
In vitro [5]
  IC50 at 72 h: > 200 µM
HCT-116
  IC50: > 200 µM
A549
  IC50: > 200 µM
[6]
  IC50: 10.4 nM
C-33-A
  IC50: > 200 µM
In vitro [7]
  IC50 at 72 h: > 200 µM
SK-OV-3 [8]
  IC50: 167 µM

Source: ChEMBL document CHEMBL5512675, “Design of Selective PARP-1 Inhibitors and Antitumor Studies” (J Med Chem, 2024)
